Test results published in patent publication US9265816B2, “Immunogenic WT-1 peptides and methods of use thereof” (priority 2006, dated 2016).
Residues, ends and D or L forms follow the SMILES beside them.

Experiments:
[1] = tested on: JMN (WT1+ mesothelioma cell line); assay type: cell-based, human
Procedure: (§1) FIG. 9, left panel. […] The presence of specific CTL was measured in a standard 4 h-chromium release assay. Target cells were pulsed with 10 microgram (mcg)/ml of synthetic peptides overnight at 37° C. and labeled with 300 μCi of Na2^51CrO4 (NEN Life Science Products, Inc., Boston, Mass.). After extensive washing, target cells were incubated with T cells at an E:T ratio ranging from 100:1 to 10:1. All conditions were performed in triplicate. Plates were incubated for 4 hours at 37° C. in 5% CO2. Supernatant fluids were harvested and radioactivity was measured in a gamma counter. Percent specific lysis was determined from the following formula: 100×[(experimental release minus spontaneous release)/(maximum release minus spontaneous release)]. Maximum release was determined by lysis of radiolabeled targets in 2.5% Triton X-100.

[2] = tested on: 697 (WT1+ leukemia cell line); assay type: cell-based, human
Procedure: FIG. 9, left panel. […] CD8^+ T cells were incubated with radiolabeled target cells (pulsed or unpulsed 697 (A0201^+, WT1^+) or SKLY16 (A0201+, WT1-) at 3 different E:T ratios: Grey bars 100:1; Black bars 30:1; White bars 10:1. Y axis: percentage of cytotoxicity. X axis: target cell conditions. *-p<0.05 compared to SKLY16 controls at the same E:T ratio. Right panel: CD8+ T cells isolated as described for the left panel were incubated with radiolabeled JMN (solid line A0201+ WT1+) or MeWo (dashed line A0201+, WT1-) target cells at 4 different E:T ratios: Y axis: percentage of cytotoxicity. X axis: E:T ratios. P was <0.001 compared to MeWo controls. The presence of specific CTL was measured in a standard 4 h-chromium release assay. Target cells were pulsed with 10 microgram (mcg)/ml of synthetic peptides overnight at 37° C. and labeled with 300 μCi of Na2^51CrO4 (NEN Life Science Products, Inc., Boston, Mass.). After extensive washing, target cells were incubated with T cells at an E:T ratio ranging from 100:1 to 10:1. […] Supernatant fluids were harvested and radioactivity was measured in a gamma counter. Percent specific lysis was determined from the following formula: 100×[(experimental release minus spontaneous release)/(maximum release minus spontaneous release)]. Maximum release was determined by lysis of radiolabeled targets in 2.5% Triton X-100.

[3] = tested on: CD3+ T cells; experiment: Cross-priming: T cells stimulated with DCs incubated with tumor lysates, IFN-gamma ELISPOT against peptide-pulsed DCs; assay type: cell-based, human; conditions: for experiments in which lysate-stimulated T cells recognized the peptide: WT1 positive tumor lysates, 5 separate donors
Procedure: A CD3^+ in vitro stimulation was performed as described above. 2×10^6 immature DCs were incubated with total cellular lysate from 2×10^6 tumor cells that was previously prepared by 3 freeze/thaw cycles. Following an 18 hour incubation, maturation cytokines were added to the DCs as described above. […] These DCs were exposed to peptide again during the ELISPOT assay as described above.
Total tumor lysates were prepared from 3 different cell lines: 697 (WT1^+, HLA A0201^+), an e1a2 leukemia cell line; JMN (WT1^+, HLA A0201^+) a biphasic mesothelioma cell line, and as a control, MeWo (WT1^−, HLA A0201^+), a malignant melanoma cell line. DCs from healthy A0201^+ donors were incubated for 18 hours with the tumor lysates and used to stimulate autologous CD3^+ T cells. Following 3 stimulations, the T cells were tested for their reactivity to autologous DCs pulsed with the WT1 peptides. […] These experiments were repeated in 5 separate donors.

[4] = tested on: CD3+ T cells; experiment: IFN-gamma ELISPOT of peptide-stimulated T cells from healthy donors with different HLA-DRB1 types; assay type: cell-based, human; conditions: for experiments with peptide specific T cell responses: 7 healthy donors, each a different HLA-DRB1 type, positive/total experiments; for peptide specific CD4 response, IFN-γ ELISPOT: donors with different HLA-DRB1 types, FIG. 5
Procedure: PBMC were Ficoll-purified from blood and resuspended at 5×10^6/ml in Ex-Vivo-150® medium (BioWhittaker, Walkersville, Md.) containing 1% autologous plasma. After a 2-hour incubation at 37° C., the non-adherent fraction was harvested and washed repeatedly with PBS, then resuspended in media containing 1×10^3 IU/ml GM-CSF and 0.0032 IU/ml IL-4. On day 2 and 4, the same media was added as re-feed (i.e., ½ the volume of media, containing enough cytokines for the entire dish, was added). On day 5, 10 μg/ml of peptide was added.
On day 6, a maturation cocktail of cytokines was added, and cells were cultured for another 48 hours. The maturation cocktail consisted of: 4×10^2 IU/ml IL-1-beta, 0.0032 IU/ml IL-4, 1×10^3 IU/ml IL-6, 1×10^3 IU/ml GMCSF, […], and 1 μg/ml PGE2.
On day 7, DC were harvested and washed twice with RPMI, counted, aliquoted and resuspended at 1×10^6/ml in X-vivo 15® media (without serum). Peptides were added to a final concentration of 10 μg/ml, and incubated for 2 h, 37° C. and 5% CO2, gently re-suspending every 15 minutes, then washed twice in HBSS and re-suspended in RPMI+5% autologous plasma at an appropriate concentration depending on the number of effectors isolated in the next step.
In addition, on day 7, additional PBMC were used to generate additional DC and CD3^+ cells. DC were isolated from the adherent fraction and prepared as described above for the second stimulation of the effector cells on day 14. CD3^+ cells were isolated from the non-adherent fraction by negative selection and stimulated with the previously prepared DC by re-suspending the CD3^+ cells at a concentration of 2×10^6 cells/ml in RPMI+5% autologous plasma, and adding DC at an effector:DC ratio of 20:1 and 10 ng/ml IL-15. Cells were then plated in 2 ml and co-incubated at 37° C. and 5% CO2 for 1 week.
On day 14, the CD3^+ cells were stimulated a second time with the second batch of DC in the same manner, except that 1×10^6 cells/ml were mixed with DC at an effector:DC ratio of 50:1. On day 18, the same media was added as re-feed. On day 20, the DC from the previous generation were defrosted and incubated in maturation cytokines in X-vivo 15® media. On day 21, the ELISPOT assay was conducted.
Plates were pre-wet with 30 μl/well 70% alcohol, shaking the plates to ensure coverage of the entire surface area, washed 3 times with 150 μl/well sterile PBS, then incubated overnight at 4° C. with 10 μg/ml coating antibody (anti-INF clone) in PBS, 100 μl/well, wrapped in aluminum foil. Plates were then washed 2 times with 150 μl/well PBS and 1 time with RPMI/10% autologous plasma (AP), then blocked with 150 μl/well RPMI/5% AP for 2 hours at 37° C. PBMC were suspended in RPMI/5% AP at 1×10^6/ml. […]

[5] = target: HLA-A0201 (Homo sapiens, UniProt P04439, D140Y/D185E/D98H/E176V/E277Q/G131W/G231S/I119V/I121R/I166T/I218V/L300P/L318F/N151K/N90K/P208A/P217A/Q86G/Q94H/R138H/R169H/T345S); experiment: T2 assay for peptide binding and stabilization of HLA A0201 molecules; assay type: cell-based; conditions: Example 1
Procedure: T2 cells (TAP^−, HLA-A0201^+) were incubated overnight at 27° C. at a concentration of 1×10^6 cells/ml in FCS-free RPMI medium supplemented with 5 μg/ml human β2m (Sigma, St Louis, Mo.) in the absence (negative control) or presence of either a positive reference tyrosinase peptide or test peptides at various final concentrations (50, 10, 1, and 0.1 micrograms (μg)/ml). Following a 4-hour incubation with 5 μg/ml brefeldin A (Sigma), T2 cells were labeled for 30 minutes at 4° C. with a saturating concentration of anti-HLA-A2.1 (BB7.2) mAb, then washed twice. Cells were then incubated for 30 minutes, 4° C. with a saturating concentration of FITC-conjugated goat IgG F(ab′)2 anti-mouse Ig (Caltag, San Francisco, Calif.), washed twice, fixed in PBS/1% paraformaldehyde and analyzed using a FACS Calibur® cytofluorometer (Becton Dickinson, Immunocytometry Systems, San Jose, Calif.).
The mean intensity of fluorescence (MIF) observed for each peptide concentration (after dividing by the MIF in the absence of peptide) was used as an indication of peptide binding and expressed as a “fluorescence index.” Stabilization assays were performed similarly. Following initial evaluation of peptide binding at time 0, cells were washed in RPMI complete medium to remove free peptides and incubated in the continuous presence of 0.5 μg/ml brefeldin-A for 2, 4, 6 or 8 hours.
The number of stable peptide-HLA-A2.1 complexes was estimated as described above by immunofluorescence. The half time of complexes is an estimate of the time required for a 50% reduction of the MIF value at time=0.

[6] = tested on: MeWo (WT1- melanoma cell line); experiment: Chromium 51 cytotoxicity assay; assay type: cell-based, human
Procedure: as §1

[7] = human T cells stimulated 2 times with the peptide

CSCC[C@H](NC(=O)[C@H](Cc1ccc(O)cc1)NC(=O)[C@H](C)NC(=O)[C@H](CCC(N)=O)NC(=O)CNC(=O)[C@@H](N)CO)C(=O)N[C@@H](Cc1ccccc1)C(=O)N1CCC[C@H]1C(=O)N[C@@H](CC(N)=O)C(=O)N[C@@H](C)C(=O)N1CCC[C@H]1C(=O)N[C@@H](Cc1ccc(O)cc1)C(=O)N[C@@H](CC(C)C)C(=O)N1CCC[C@H]1C(=O)N[C@@H](CO)C(=O)N[C@@H](CS)C(=O)N[C@@H](CC(C)C)C(=O)N[C@@H](CCC(=O)O)C(=O)N[C@@H](CO)C(=O)O [Peptide 122A1] (H-SGQAYMFPNAPYLPSCLES-OH)
cytotoxicity of stimulated CD4+ cells [1]: no cytotoxicity | A0201+ donors with similar cytotoxicity results [2]: ¾ | cytotoxicity of stimulated CD8+ cells to 697 [2]: stimulated a sufficient number of CD8^+ cells to be cytotoxic to 697

LVRHHNMHQRNMTKL (listed as Homo sapiens) [Peptide 427]
experiments in which lysate-stimulated T cells recognized the peptide [3]: all experiments

PGCNKRYFKLSHLQMHSRKHTG (listed as Homo sapiens) [Peptide 328]
experiments in which lysate-stimulated T cells recognized the peptide [3]: ⅗ | experiments with peptide specific T cell responses [4]: 11/15 | peptide specific CD4 response, IFN-γ ELISPOT [4]: stimulated a significant peptide specific CD4 response

RSDELVRHHNMHQRNMTKL (listed as Homo sapiens) [Peptide 423]
experiments with peptide specific T cell responses [4]: 3/14

TEYKLVVVGAPGVGKSALTIQ (listed as Homo sapiens) [RAS, reference compound]
peptide specific CD4 response, IFN-γ ELISPOT [4]: did not produce IFN-γ over background levels

YLGEQQYSV (One or more amino acids changed compared to native peptide sequence) [WT1 B (analogue)]
stability of binding to HLA-A0201 [5]: stable binding

YLLPAVPSL (One or more amino acids changed compared to native peptide sequence) [WT1 C1 (analogue)]
stability of binding to HLA-A0201 [5]: stable binding

YMFPNAPYL (One or more amino acids changed compared to native peptide sequence) [WT1 A1 (analogue)]
recognition by T cells stimulated with DCs pulsed with 697 tumor lysate ([3]; 697 tumor lysate): recognized | recognition of JMN cells by stimulated CD3+ T cells ([1]; FIG. 9 right panel): recognized JMN cells | lysis of JMN [1, 7]: 44.8% | stability of binding to HLA-A0201 [5]: stable binding | recognition of MeWo cells by stimulated CD3+ T cells ([6]; MeWo alone or pulsed with WT1 122A1 peptide): not negative control MeWo cells | lysis of MeWo [6, 7]: 22.2%
